Read-outs that look alike come from different tables or passages of the source. Positions of bridges follow the written chain, without caps; N, C: chain ends. Non-standard residues stand in square brackets, D forms with d. Residues, ends and D or L forms follow the SMILES beside them. hArg = N=C(N)NCCCC[C@H](N)C(=O)O; Mpa = O=C(O)CCS
Tests used:
[1] = test system: whole blood samples (extrinsic coagulation pathway); assay: Thromboelastogram (TEG) coagulation test on disposable test strip; type: biochemical; conditions: for peak / maximum thrombin generation (ThrombinPeak): blood samples with increasing concentrations of the anticoagulant (heparin 0 to 3 IU/ml); for clot formation time (R): blood samples with increasing concentrations of the anticoagulant, FIG. 20(a), 21(a); for clot stiffness G: blood samples with increasing concentrations of the substance (cleavable fibrinogen 42 to 231 mg/dL); for ratio of the normalized ThrombinPeak and clot stiffness G: tested samples with increasing anticoagulant concentrations, FIG. 22(d)
Method: The disposable test strips used in this example were incorporated with a reagent comprising of rabbit brain thromboplastin (Pacific Hemostasis Prothrombin Time reagent, Thromboplastin-DS, Product# 29-227-3), calcium chloride (25 mM) and Tween (2% v/v aqueous solution). Prior to the final assembly of the strip, the reagent was incorporated by dispensing the solution on to the exposed hydrophilic surface in the bottom stack, followed by air-drying in a drying box with humidity control at standard room temperature and pressure. The ratio of the volume of the reagent to blood tested in the chamber was maintained at close to 2:1 to ensure successful initiation of the blood coagulation reaction. […] In this example, venous whole blood and finger-stick, capillary whole blood samples from a normal subject were used. In addition, finger-stick, capillary whole blood samples from patients undergoing warfarin therapy at an anticoagulation clinic were used. Following procurement of informed consent under an Institutional Review Board (IRB) approved protocol, phlebotomy was performed to extract the blood sample by venipuncture and the sample was directly dispensed into blood collection tubes containing sodium citrate anticoagulant. The citrated whole blood samples were contrived in vitro to incorporate varying amounts of unfractionated heparin (0 to 3 IU/ml), cleavable fibrinogen (42 to 231 mg/dL), Eptifibatide (GPIIb/IIIa platelet inhibitor, 0 to 12 μg/mL), and tissue plasminogen activator (tPA, 0 to 1.8 nM). Further in some tests, following procurement of informed consent under an Institutional Review Board (IRB) approved protocol, a standard lancet was used to extract blood samples by finger-stick and a standard microliter pipette or dropper was used to pick up the sample for insertion into the disposable test strip. Lastly, in some tests, blood samples were also tested using 2 Haemonetics' TEG-5000 instruments (2 tests per instrument) and their corresponding TEG curve & parameters were recorded, in order to perform side-by-side comparison with the results generated using the disposable test strips. Results: • In this example, the oscillation characteristics (amplitude and phase) of the in-plane vibration mode of a physical element in single-use disposable test strips were measured as a function of frequency in the vicinity of the resonance frequency, and these amplitude & phase frequency scans were monitored periodically to determine different aspects of the blood coagulation cascade. The blood sample upon entering the chamber reacted with the dried reagent and started to coagulate through the extrinsic coagulation pathway. An example of the amplitude and phase frequency scans of an oscillating physical element in a disposable test strip with a blood sample in the chamber undergoing coagulation is shown in FIGS. 13(a) and 13(b), respectively, wherein the amplitude and phase at the resonance frequency peak are seen to decrease in magnitude as the blood coagulation cascade progresses. These amplitude and phase frequency scans monitored periodically over time were used to perform a Thromboelastogram (TEG) test, wherein a characteristic […] shaped viscoelastic curve and parameters were extracted. The TEG-like viscoelastic parameters extracted were clot formation time (R), activated clotting time (ACT), maximum thrombin generation (ThrombinPeak), clot stiffness (G), platelet contraction rate (Plt-Cont), and fibrinolysis rate (Lys-Rate). A mathematical model of the viscoelastic oscillation damping of the physical element, which incorporated the different kinetic processes in the coagulation cascade, was used to fit to data from the amplitude and phase frequency scans measured as a function of time. […]

[2] = Method: Ethylene glycol solutions were prepared using de-ionized water in varying concentrations ranging from 0 to 40.38% as shown in Table I. The solutions were prepared in 20 ml de-ionized water and corresponding volume of ethylene glycol solutions concentrations. The fluid sample, when introduced into the assembled disposable test strip through the inlet port (i.e. rectangular opening 207 in FIG. 2(a)), wicked into the chamber under the region of the substrate layer leading up to the suspended beam, followed by the fluid flow being directed through the chamber along the beam length while maintaining contact with the underside of the beam (at or slightly beyond its width), and finally, flowing through the chamber under the region of the substrate layer past the beam leading up to the vent port (i.e. rectangular opening 208 in FIG. 2(a)), which permits air to escape from the chamber as it is loaded with the fluid sample.
[3] = test system: venous whole blood samples (intrinsic coagulation pathway); assay: Activated partial thromboplastin time (aPTT) coagulation test on disposable test strip; type: biochemical; conditions: citrated venous whole blood spiked in vitro, 0.0 to 1.0 IU/ml; FIG. 10, R^2=0.92
Method: The disposable test strips used in this example were incorporated with a reagent comprising of Actin-FS activated partial thromboplastin time reagent (Siemens Diagnostics, Catalog# B4218-20), calcium chloride (25 mM) and Tween (2% v/v aqueous solution). Prior to the final assembly of the strip, the reagent was incorporated by dispensing the solution on to the exposed hydrophilic surface in the bottom stack, followed by air-drying in a drying box with humidity control at standard room temperature and pressure. The ratio of the volume of the reagent to blood tested in the chamber was maintained at close to 2:1 to ensure successful initiation of the blood coagulation reaction. […]
In this example, the oscillation characteristics (e.g., amplitude) of the in-plane mode of a physical element in single-use disposable test strips were monitored and recorded before and after introduction of the blood sample, in order to measure the change in viscosity and viscoelasticity of the blood sample as a function of time as it undergoes coagulation. […] An algorithm was used to track the measured oscillation characteristics, viscosity and/or viscoelasticity as a function of time and identify a time to clot formation (measured starting from blood sample insertion time, t=0), in other words known as the partial thromboplastin time (aPTT). […]

[4] = test system: venous whole blood samples (intrinsic coagulation pathway); assay: Low range activated clotting time (ACT) coagulation test on disposable test strip; type: biochemical; conditions: citrated venous whole blood spiked in vitro, 0.0 to 3.0 IU/ml; FIG. 11, R^2=0.99
Method: (§1) The disposable test strips used in this example were incorporated with a reagent comprising of kaolin suspended in distilled water, calcium chloride (25 mM) and Tween (2% v/v aqueous solution). Prior to the final assembly of the strip, the reagent was incorporated by dispensing the solution on to the exposed hydrophilic surface in the bottom stack, followed by air-drying in a drying box with humidity control at standard room temperature and pressure. […]
(§2) Results: • In this example, the oscillation characteristics (e.g., amplitude) of the in-plane mode of a physical element in single-use disposable test strips were monitored and recorded before and after introduction of the blood sample, in order to measure the change in viscosity and viscoelasticity of the blood sample as a function of time as it undergoes coagulation. […] An algorithm was used to track the measured oscillation characteristics, viscosity and/or viscoelasticity as a function of time and identify a time to clot formation (measured starting from blood sample insertion time, t=0), in other words known as the activated clotting time (ACT). […] In this specific example, the ACT clotting time measured corresponds to a low-range ACT measurement given the system's sensitivity from 0.0 to 3.0 IU/ml, which corresponds to the low range of heparin therapy used during cardiac and hepatic surgeries.

[5] = test system: venous whole blood samples (intrinsic coagulation pathway); assay: High range activated clotting time (ACT) coagulation test on disposable test strip; type: biochemical; conditions: citrated venous whole blood spiked in vitro, 1.0 to 5.0 IU/ml; FIG. 12, R^2=0.95
Method: as §1
as §2, with “high-range” for “low-range”, “1.0” for “0.0”, “5.0” for “3.0”, “high” for “low”

[6] = 3 warfarin patient samples, increasing warfarin activity, FIG. 15
[7] = 16.22 % v/v in de-ionized water
[8] = 40.38 % v/v in de-ionized water

Molecule: CC(=O)CC(c1ccccc1)c1c(O)c2ccccc2oc1=O (stereo not shown) [warfarin]
- maximum thrombin generation ([1]; 3 warfarin patient samples, increasing warfarin activity (PT 17.4, 36.4, 54.4 seconds), FIG. 15): steady decrease
- time to maximum fibrin formation (TMA) [1, 6]: delayed
- time to maximum thrombin generation (analogous to the ACT) [1, 6]: delayed

Molecule: N=C(N)NCCCC[C@@H]1NC(=O)CCSSC[C@@H](C(N)=O)NC(=O)[C@@H]2CCCN2C(=O)[C@H](Cc2c[nH]c3ccccc23)NC(=O)[C@H](CC(=O)O)NC(=O)CNC1=O [Eptifibatide] ([Mpa][hArg]GDWPC-NH2; disulfide 1-7)
- rate of platelet contraction (Plt-Cont) ([1]; blood samples with increasing concentrations, 0 to 12 μg/mL, FIG. 18(b)): decreasing trend

Molecule: OCCO [Ethylene Glycol, ethylene glycol]
- Density ([2]; 10 % v/v in de-ionized water): 1.035 gm/cc
- Viscosity ([2]; 10 % v/v in de-ionized water): 1.9903 cP
- Density [2, 7]: 1.052 gm/cc
- Viscosity [2, 7]: 2.7938 cP
- Density ([2]; 22.5 % v/v in de-ionized water): 1.065 gm/cc
- Viscosity ([2]; 22.5 % v/v in de-ionized water): 3.711 cP
- Density [2, 8]: 1.088 gm/cc
- Viscosity [2, 8]: 6.8247 cP

Molecule: O=C(NC[C@H]1CN(c2ccc(N3CCOCC3=O)cc2)C(=O)O1)c1ccc(Cl)s1 [Rivaroxaban]
- peak / maximum thrombin generation (ThrombinPeak) [1]: reducing
- clot formation time (R) [1]: increasing linear trend
- clot stiffness G [1]: limited to no effect
- ratio of the normalized ThrombinPeak and clot stiffness G [1]: decreasing linear trend

Molecule: heparin
- uncalibrated aPTT clotting time [3]: linear dose response
- uncalibrated ACT clotting time (low-range) [4]: linear dose response
- uncalibrated ACT clotting time (high-range) [5]: linear dose response
- peak / maximum thrombin generation (ThrombinPeak) [1]: decrease
- activated clotting time (ACT), time to peak thrombin generation ([1]; blood samples with increasing heparin concentrations from 0 to 3 IU/ml, FIG. 16): increase

Molecule: Dabigatran
- peak / maximum thrombin generation (ThrombinPeak) [1]: limited to no effect
- clot formation time (R) [1]: increasing linear trend
- clot stiffness G [1]: reducing
- ratio of the normalized ThrombinPeak and clot stiffness G [1]: increasing

— patent US20200256882A1, “FLUID PROPERTY MEASUREMENT DEVICES AND METHODS” (Abram Scientific, Inc., priority 2019, published 2020)
